In US9084770B2, “Modulation of insulin like growth factor I receptor expression in cancer” (Antisense Therapeutics, Ltd., priority 2008, dated 2015):

Test system: human IGF-IR mRNA
Assay: Antisense inhibition of human IGF-IR mRNA levels by quantitative RT-PCR (Table 1)
Format: cell-based
Set-up: %INHIB (human IGF-IR mRNA levels): concentration or dose not given beside the values
Conditions: for %INHIB (human IGF-IR mRNA levels): quantitative RT-PCR, averages from 3 experiments; for inhibition of IGF-IR expression (lead compounds): as shown in Table 1
Text: Treatment of A549 cell cultures with oligonucleotides targeting IGF-IR is as described in WO 2004/072284.
Quantitation of IGF-IR mRNA levels was accomplished by RT-PCR using the ABI PRISM (trademark) 7600, 7700, or 7900 Sequence Detection System (PE-Applied Biosystems, Foster City, Calif.) according to manufacturer's instructions. This is a closed-tube, non-gel-based, fluorescence detection system which allows high-throughput quantitation of PCR products in real-time. As opposed to standard PCR in which amplification products are quantitated after the PCR is completed, products in real-time quantitative PCR are quantitated as they accumulate. This is accomplished by including in the PCR reaction an oligonucleotide probe that anneals specifically between the forward and reverse PCR primers, and contains two fluorescent dyes. A reporter dye (e.g., FAM or JOE, obtained from either PE-Applied Biosystems, Foster City, Calif., Operon Technologies Inc., Alameda, Calif. or Integrated DNA Technologies Inc., Coralville, Iowa) is attached to the 5′-end of the probe and a quencher dye (e.g., TAMRA, obtained from either PE-Applied Biosystems, Foster City, Calif., Operon Technologies Inc., Alameda, Calif. or Integrated DNA Technologies Inc., Coralville, Iowa) is attached to the 3′-end of the probe. When the probe and dyes are intact, reporter dye emission is quenched by the proximity of the 3′ quencher dye. During amplification, annealing of the probe to the target sequence creates a substrate that can be cleaved by the 5′-exonuclease activity of Taq polymerase. […] With each cycle, additional reporter dye molecules are cleaved from their respective probes, and the fluorescence intensity is monitored at regular intervals by laser optics built into the ABI PRISM (trademark) Sequence Detection System. In each assay, a series of parallel reactions containing serial dilutions of mRNA from untreated control samples generates a standard curve that is used to quantitate the percent inhibition after antisense oligonucleotide treatment of test samples.
PCR reagents were obtained from Invitrogen Corporation, (Carlsbad, Calif.). RT-PCR reactions were carried out by adding 20 μL PCR cocktail (2.5×PCR buffer minus MgCl2, 6.6 mM MgCl2, 375 μM each of dATP, dCTP, […] and dGTP, 375 nM each of forward primer and reverse primer, 125 nM of probe, 4 Units RNAse inhibitor, 1.25 Units PLATINUM (registered trademark) Taq, 5 Units MuLV reverse transcriptase, and 2.5×ROX dye) to 96-well plates containing 30 μL total RNA solution (20-200 ng). The RT reaction was carried out by incubation for 30 minutes at 48° C. Following a 10 minute incubation at 95° C. to activate the PLATINUM (trademark) Taq, 40 cycles of a two-step PCR protocol were carried out: 95° C. for 15 seconds (denaturation) followed by 60° C. for 1.5 minutes (annealing/extension).
Gene target quantities obtained by RT-PCR are normalized using either the expression level of GAPDH, a gene whose expression is constant, or by quantifying total RNA using RiboGreen (trademark) (Molecular Probes, Inc. Eugene, Oreg.). GAPDH expression is quantified by RT-PCR, by being run simultaneously with the target, multiplexing, or separately. Total RNA is quantified using RiboGreen (trademark) RNA quantification reagent (Molecular Probes, Inc. Eugene, Oreg.). Methods of RNA quantification by RiboGreen (trademark) are taught in Jones et al., 1998.
Probes and primers to human IGF-IR were designed to hybridize to the IGF-IR nucleotide sequence, using published sequence information (GenBank accession number NM000875 (SEQ ID NO:76) or M69229 (SEQ ID NO:77) which is the 5′ untranslated of the IGF-IR gene sequence (see FIG. 6).
In accordance with the present invention, a series of antisense compounds were designed to target different regions of the human IGF-IR mRNA or the 5′ untranslated region, using published sequences set forth in NM000875 (SEQ ID NO:77) and M69229 (SEQ ID NO:76). […]

| Substance | %INHIB (human IGF-IR mRNA levels) | inhibition of IGF-IR expression (lead compounds) |
| --- | --- | --- |
| 175313 (antisense TAGGCGAGGAAAAACAAGCC; listed as DNA, chemistry not fully specified) [compound 175313] | 62% | – |
| 175302 (antisense CCTCCATTTTCAAACCCGGA; listed as DNA, chemistry not fully specified) [compound 175302] | 93% | demonstrated inhibition |
| 323724 (antisense GGTCCAGCAGCGGTAGTTGT; listed as DNA, chemistry not fully specified) [compound 323724] | 60% | – |
| 323728 (antisense TCCCACAGTTGCTGCAAGTT; listed as DNA, chemistry not fully specified) [compound 323728] | 73% | – |
| 323757 (antisense CGGAGATAACTTTTGAGATC; listed as DNA, chemistry not fully specified) [compound 323757] | 35% | – |
| 175328 (antisense GGTAAACAAGAGCCCCAGCC; listed as DNA, chemistry not fully specified) [compound 175328] | 64% | – |
| 323734 (antisense TTGGTGCGAATGTACAAGAT; listed as DNA, chemistry not fully specified) [compound 323734] | 61% | – |
| 175311 (antisense TAATGCTGGTAAACAAGAGC; listed as DNA, chemistry not fully specified) [compound 175311] | 53% | – |
| 175295 (antisense AACAAGAGCCCCAGCCTCGC; listed as DNA, chemistry not fully specified) [compound 175295] | 76% | – |
| 175305 (antisense ATCCAGGACACACACAAAGC; listed as DNA, chemistry not fully specified) [compound 175305] | 81% | – |
| 323761 (antisense TGTAGTAGAAGGAGACCTCC; listed as DNA, chemistry not fully specified) [compound 323761] | 26% | – |
| 323755 (antisense GGAACGTACACATCAGCAGC; listed as DNA, chemistry not fully specified) [compound 323755] | 36% | – |
| 323736 (antisense AGGAAATTCTCAAAGACTTT; listed as DNA, chemistry not fully specified) [compound 323736] | 43% | – |
| 175310 (antisense GCGGCGAGCTCCTTCCCAAA; listed as DNA, chemistry not fully specified) [compound 175310] | 76% | – |
| 323739 (antisense CTGCTCTCAAAGAAAGGGTA; listed as DNA, chemistry not fully specified) [compound 323739] | 58% | – |
| 323713 (antisense GTTATTGGACACCGCATCCA; listed as DNA, chemistry not fully specified) [compound 323713] | 31% | – |
| 175309 (antisense GCAGAAACGCGGAGTCAAAA; listed as DNA, chemistry not fully specified) [compound 175309] | 72% | – |
| 323714 (antisense ATGTAGTTATTGGACACCGC; listed as DNA, chemistry not fully specified) [compound 323714] | 64% | – |
| 175326 (antisense CCCAAATCCAGGACACACAC; listed as DNA, chemistry not fully specified) [compound 175326] | 74% | – |

| Substance | %INHIB (human IGF-IR mRNA levels) | inhibition of IGF-IR expression (lead compounds) |
| --- | --- | --- |
| 323743 (antisense TTGCAGCTGTGGATATCGAT; listed as DNA, chemistry not fully specified) [compound 323743] | 53% | – |
| 323764 (antisense GCTGCTTGCATATTGAAAAA; listed as DNA, chemistry not fully specified) [compound 323764] | 77% | – |
| 175319 (antisense GAAACAATACTCCGAAGGGC; listed as DNA, chemistry not fully specified) [compound 175319] | 63% | – |
| 323737 (antisense CTGCTTCGGCTGGACATGGT; listed as DNA, chemistry not fully specified) [compound 323737] | 84% | demonstrated inhibition |
| 323710 (antisense AAGCCCAATATCCTTGAGAT; listed as DNA, chemistry not fully specified) [compound 323710] | 43% | – |
| 323698 (antisense GCTGCTGATAGTCGTTGCGG; listed as DNA, chemistry not fully specified) [compound 323698] | 72% | – |
| 323748 (antisense GCAGCCCAGCTTCTCAGCCT; listed as DNA, chemistry not fully specified) [compound 323748] | 77% | – |
| 175323 (antisense AATGAATGAGCGGCTCCCCC; listed as DNA, chemistry not fully specified) [compound 175323] | 82% | demonstrated inhibition |
| 323752 (antisense TCCTGTCTGGACACACATTC; listed as DNA, chemistry not fully specified) [compound 323752] | 66% | – |
| 175298 (antisense GGAGTCAAAATGAATGAGCG; listed as DNA, chemistry not fully specified) [compound 175298] | 74% | – |
| 323726 (antisense TGGGCACATTTTCTGGCAGC; listed as DNA, chemistry not fully specified) [compound 323726] | 57% | – |
| 323709 (antisense CAATATCCTTGAGATTGGTC; listed as DNA, chemistry not fully specified) [compound 323709] | 29% | – |
| 175307 (antisense AAGTCTCAAACTCAGTCTTC; listed as DNA, chemistry not fully specified) [compound 175307] | 86% | demonstrated inhibition |
| 175324 (antisense TGAAGGTCACAGCCGAGGCG; listed as DNA, chemistry not fully specified) [compound 175324] | 57% | – |
| 175325 (antisense AAGGTCACAGCCGAGGCGAG; listed as DNA, chemistry not fully specified) [compound 175325] | 55% | – |
| 175322 (antisense TCCGGGTCACAGGCGAGGCC; listed as DNA, chemistry not fully specified) [compound 175322] | 67% | – |
| 323738 (antisense TGTTCCTGCTTCGGCTGGAC; listed as DNA, chemistry not fully specified) [compound 323738] | 76% | – |
| 323735 (antisense ATTTTGTCTTTGGAGCAGTA; listed as DNA, chemistry not fully specified) [compound 323735] | 65% | – |
